Measurements from the kinase profiling compilation of Christmann-Franck et al. (2016).

Key:
Assay in all cases: Caliper, Mobility shift assay off-chip
ROCK1 (human) = ROCK1 (human) (UniProt Q13464)
CAMK1D (human) = CAMK1D (human) (UniProt Q8IU85)
DYRK1B (human) = DYRK1B (human) (UniProt Q9Y463)
RPS6KA4 KD1 KD2 (human) = RPS6KA4 KD1 KD2 (human) (UniProt O75676)
NUAK1 (human) = NUAK1 (human) (UniProt O60285)
MARK1 (human) = MARK1 (human) (UniProt Q9P0L2)
CSNK1G1 (human) = CSNK1G1 (human) (UniProt Q9HCP0)
TBK1 (human) = TBK1 (human) (UniProt Q9UHD2)
ZAP70 (human) = ZAP70 (human) (UniProt P43403)
MKNK2 (human) = MKNK2 (human) (UniProt Q9HBH9)
SGK1 (human) = SGK1 (human) (UniProt O00141)
PRKCZ (human) = PRKCZ (human) (UniProt Q05513)
Sequence of PRKCZ (human) (Q05513 whole entry, looked up): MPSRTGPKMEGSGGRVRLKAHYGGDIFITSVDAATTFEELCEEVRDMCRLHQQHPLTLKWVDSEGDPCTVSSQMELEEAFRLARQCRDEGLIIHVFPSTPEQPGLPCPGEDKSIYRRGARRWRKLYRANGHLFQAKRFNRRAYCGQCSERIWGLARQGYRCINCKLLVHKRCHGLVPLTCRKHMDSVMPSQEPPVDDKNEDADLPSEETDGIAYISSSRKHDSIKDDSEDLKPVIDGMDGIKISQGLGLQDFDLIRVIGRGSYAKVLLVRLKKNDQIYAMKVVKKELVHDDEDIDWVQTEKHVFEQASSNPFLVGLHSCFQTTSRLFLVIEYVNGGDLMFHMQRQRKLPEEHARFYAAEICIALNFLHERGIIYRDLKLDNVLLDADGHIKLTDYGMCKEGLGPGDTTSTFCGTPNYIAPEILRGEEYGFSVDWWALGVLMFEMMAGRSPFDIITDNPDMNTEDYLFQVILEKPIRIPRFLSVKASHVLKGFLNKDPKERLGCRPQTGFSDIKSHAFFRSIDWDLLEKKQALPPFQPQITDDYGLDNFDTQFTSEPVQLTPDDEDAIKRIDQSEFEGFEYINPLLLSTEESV

WNK2 (human) = WNK2 (human) (UniProt Q9Y3S1)
PRKCG (human) = PRKCG (human) (UniProt P05129)
RET (human) = RET (human) (UniProt P07949)
MARK4 (human) = MARK4 (human) (UniProt Q96L34)
Sequence of MARK4 (human) (Q96L34 whole entry, looked up): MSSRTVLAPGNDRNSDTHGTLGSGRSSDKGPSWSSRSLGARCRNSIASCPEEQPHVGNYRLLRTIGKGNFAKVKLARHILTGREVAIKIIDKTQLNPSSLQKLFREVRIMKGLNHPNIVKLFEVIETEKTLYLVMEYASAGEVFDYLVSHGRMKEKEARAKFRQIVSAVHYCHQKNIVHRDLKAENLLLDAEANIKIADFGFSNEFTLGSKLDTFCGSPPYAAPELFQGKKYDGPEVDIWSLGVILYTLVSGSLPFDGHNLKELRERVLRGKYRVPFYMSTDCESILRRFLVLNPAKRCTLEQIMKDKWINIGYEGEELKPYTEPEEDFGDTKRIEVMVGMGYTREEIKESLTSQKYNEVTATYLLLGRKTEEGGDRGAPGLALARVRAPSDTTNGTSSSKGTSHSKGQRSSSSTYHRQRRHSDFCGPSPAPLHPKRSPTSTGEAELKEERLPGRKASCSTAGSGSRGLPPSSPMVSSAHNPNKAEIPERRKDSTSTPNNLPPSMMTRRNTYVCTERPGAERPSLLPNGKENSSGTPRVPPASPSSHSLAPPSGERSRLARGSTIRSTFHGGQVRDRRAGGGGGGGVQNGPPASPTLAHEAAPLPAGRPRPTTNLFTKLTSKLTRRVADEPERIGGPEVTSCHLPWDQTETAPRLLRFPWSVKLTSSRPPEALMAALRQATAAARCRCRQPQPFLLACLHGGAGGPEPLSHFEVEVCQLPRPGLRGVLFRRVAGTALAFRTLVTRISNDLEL

CSNK1G2 (human) = CSNK1G2 (human) (UniProt P78368)
IRAK4 (human) = IRAK4 (human) (UniProt Q9NWZ3)
PDPK1 (human) = PDPK1 (human) (UniProt O15530)
MAPK1 (human) = MAPK1 (human) (UniProt P28482)
ERBB2 (human) = ERBB2 (human) (UniProt P04626)
HIPK1 (human) = HIPK1 (human) (UniProt Q86Z02)
ALK (human) = ALK (human) (UniProt Q9UM73)
CHEK2 (human) = CHEK2 (human) (UniProt O96017)
DYRK1A (human) = DYRK1A (human) (UniProt Q13627)
MYLK2 (human) = MYLK2 (human) (UniProt Q9H1R3)
EPHA7 (human) = EPHA7 (human) (UniProt Q15375)
Sequence of EPHA7 (human) (Q15375 whole entry, looked up): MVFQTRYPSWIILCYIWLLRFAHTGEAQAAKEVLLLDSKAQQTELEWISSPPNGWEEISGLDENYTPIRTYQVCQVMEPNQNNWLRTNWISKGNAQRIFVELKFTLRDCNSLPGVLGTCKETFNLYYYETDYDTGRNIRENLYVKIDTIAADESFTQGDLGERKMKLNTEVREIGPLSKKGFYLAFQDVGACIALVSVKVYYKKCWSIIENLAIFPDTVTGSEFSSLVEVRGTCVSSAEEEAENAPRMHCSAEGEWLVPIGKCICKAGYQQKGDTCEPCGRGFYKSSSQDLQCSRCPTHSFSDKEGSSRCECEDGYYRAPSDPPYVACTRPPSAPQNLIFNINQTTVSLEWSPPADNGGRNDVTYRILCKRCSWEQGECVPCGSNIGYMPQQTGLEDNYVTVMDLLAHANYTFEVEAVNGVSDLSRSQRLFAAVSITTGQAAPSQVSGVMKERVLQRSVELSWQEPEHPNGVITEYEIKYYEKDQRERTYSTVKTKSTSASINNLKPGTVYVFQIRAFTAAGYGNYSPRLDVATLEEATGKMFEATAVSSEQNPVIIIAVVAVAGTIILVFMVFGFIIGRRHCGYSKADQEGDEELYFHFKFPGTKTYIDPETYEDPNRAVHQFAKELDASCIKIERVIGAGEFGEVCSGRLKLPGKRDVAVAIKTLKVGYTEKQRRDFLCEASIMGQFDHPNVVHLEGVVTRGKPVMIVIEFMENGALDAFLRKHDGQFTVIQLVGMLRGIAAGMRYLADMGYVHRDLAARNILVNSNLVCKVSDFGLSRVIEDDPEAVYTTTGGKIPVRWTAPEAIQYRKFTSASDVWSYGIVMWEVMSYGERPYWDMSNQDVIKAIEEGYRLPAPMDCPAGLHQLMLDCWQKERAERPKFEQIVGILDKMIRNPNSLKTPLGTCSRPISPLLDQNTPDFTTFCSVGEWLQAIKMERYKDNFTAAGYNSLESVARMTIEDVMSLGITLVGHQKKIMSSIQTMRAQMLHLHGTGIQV

JAK2 JH1 JH2 (human) = JAK2 JH1 JH2 (human) (UniProt O60674)
EPHB2 (human) = EPHB2 (human) (UniProt P29323)
Sequence of EPHB2 (human) (P29323 whole entry, looked up): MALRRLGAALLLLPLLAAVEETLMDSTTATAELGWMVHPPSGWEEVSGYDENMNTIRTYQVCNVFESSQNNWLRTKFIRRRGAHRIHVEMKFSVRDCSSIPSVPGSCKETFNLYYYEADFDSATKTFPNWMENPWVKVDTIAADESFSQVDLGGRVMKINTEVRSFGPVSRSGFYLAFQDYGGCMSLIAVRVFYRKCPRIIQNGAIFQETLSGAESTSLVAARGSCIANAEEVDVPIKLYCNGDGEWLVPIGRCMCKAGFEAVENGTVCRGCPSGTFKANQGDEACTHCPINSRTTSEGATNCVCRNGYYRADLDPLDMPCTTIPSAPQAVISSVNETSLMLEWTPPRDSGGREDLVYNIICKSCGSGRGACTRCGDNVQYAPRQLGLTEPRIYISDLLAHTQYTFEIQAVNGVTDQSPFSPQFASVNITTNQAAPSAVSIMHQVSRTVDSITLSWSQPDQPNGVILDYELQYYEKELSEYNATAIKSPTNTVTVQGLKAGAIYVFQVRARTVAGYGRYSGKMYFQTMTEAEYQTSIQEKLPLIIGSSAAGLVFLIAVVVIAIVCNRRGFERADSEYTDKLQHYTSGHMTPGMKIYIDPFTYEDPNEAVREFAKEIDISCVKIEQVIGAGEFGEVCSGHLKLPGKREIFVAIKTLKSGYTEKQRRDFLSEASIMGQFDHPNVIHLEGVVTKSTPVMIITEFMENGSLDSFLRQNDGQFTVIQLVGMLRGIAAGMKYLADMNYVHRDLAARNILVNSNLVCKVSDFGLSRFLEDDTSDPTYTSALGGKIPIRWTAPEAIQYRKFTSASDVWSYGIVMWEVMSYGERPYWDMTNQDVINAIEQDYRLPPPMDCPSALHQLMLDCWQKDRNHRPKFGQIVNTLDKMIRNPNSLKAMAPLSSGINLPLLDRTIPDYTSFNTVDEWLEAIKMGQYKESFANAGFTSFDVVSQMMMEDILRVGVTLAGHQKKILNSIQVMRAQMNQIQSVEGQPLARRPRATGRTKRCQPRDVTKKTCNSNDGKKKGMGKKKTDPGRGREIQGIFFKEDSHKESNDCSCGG

EPHB3 (human) = EPHB3 (human) (UniProt P54753)
CDK3 (human) = CDK3 (human) (UniProt Q00526)
PRKCH (human) = PRKCH (human) (UniProt P24723)
MAPK14 (human) = MAPK14 (human) (UniProt Q16539)
PRKACA (human) = PRKACA (human) (UniProt P17612)

Sequence of DYRK1B (human) (Q9Y463 whole entry, looked up): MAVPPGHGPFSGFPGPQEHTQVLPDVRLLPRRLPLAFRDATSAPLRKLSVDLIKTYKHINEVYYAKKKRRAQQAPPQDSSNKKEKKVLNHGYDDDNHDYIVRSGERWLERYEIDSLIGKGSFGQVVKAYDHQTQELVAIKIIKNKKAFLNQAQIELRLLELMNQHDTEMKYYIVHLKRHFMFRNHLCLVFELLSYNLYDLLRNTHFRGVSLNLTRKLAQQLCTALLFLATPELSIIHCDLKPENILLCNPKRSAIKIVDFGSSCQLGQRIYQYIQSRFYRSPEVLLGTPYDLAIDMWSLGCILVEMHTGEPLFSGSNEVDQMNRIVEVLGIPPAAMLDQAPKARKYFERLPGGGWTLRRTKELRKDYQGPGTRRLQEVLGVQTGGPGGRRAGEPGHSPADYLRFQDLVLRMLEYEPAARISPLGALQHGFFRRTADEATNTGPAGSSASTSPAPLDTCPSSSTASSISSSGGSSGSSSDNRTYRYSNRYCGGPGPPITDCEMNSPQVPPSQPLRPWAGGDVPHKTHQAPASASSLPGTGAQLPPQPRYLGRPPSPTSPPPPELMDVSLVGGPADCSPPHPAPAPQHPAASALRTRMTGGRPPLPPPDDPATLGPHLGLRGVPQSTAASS
Sequence of MARK1 (human) (Q9P0L2 whole entry, looked up): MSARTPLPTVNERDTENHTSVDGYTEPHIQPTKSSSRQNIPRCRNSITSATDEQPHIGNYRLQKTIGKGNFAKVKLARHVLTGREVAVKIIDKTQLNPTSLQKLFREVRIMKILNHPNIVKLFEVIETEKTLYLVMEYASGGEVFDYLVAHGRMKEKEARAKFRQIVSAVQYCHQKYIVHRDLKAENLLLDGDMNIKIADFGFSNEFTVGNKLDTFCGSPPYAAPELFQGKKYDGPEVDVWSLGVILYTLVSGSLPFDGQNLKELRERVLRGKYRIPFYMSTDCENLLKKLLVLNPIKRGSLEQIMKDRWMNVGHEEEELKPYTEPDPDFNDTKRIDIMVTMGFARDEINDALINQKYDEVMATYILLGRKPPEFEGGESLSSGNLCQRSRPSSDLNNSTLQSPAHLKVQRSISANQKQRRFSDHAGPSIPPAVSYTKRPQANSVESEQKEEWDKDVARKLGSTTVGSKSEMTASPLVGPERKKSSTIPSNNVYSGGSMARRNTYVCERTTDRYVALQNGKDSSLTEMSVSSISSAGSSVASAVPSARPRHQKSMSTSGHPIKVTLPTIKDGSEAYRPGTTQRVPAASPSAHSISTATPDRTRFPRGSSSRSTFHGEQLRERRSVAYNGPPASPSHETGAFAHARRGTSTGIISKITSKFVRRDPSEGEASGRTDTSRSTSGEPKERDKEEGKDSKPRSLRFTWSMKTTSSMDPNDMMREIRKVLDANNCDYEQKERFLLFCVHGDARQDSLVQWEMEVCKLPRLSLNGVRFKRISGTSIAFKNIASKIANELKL

SMILES: CNC(=O)c1cc(Oc2ccc(NC(=O)Nc3ccc(Cl)c(C(F)(F)F)c3)cc2)ccn1
- inhibition (ROCK1 (human); compound 0.02 µM): -1.1%
- inhibition (ROCK1 (human); compound 0.2 µM): 6.8%
- inhibition (CAMK1D (human); compound 0.02 µM): -6.7%
- inhibition (CAMK1D (human); compound 0.2 µM): 3.1%
- inhibition (DYRK1B (human); compound 0.02 µM): -6.7%
- inhibition (DYRK1B (human); compound 0.2 µM): 0.6%
- inhibition (RPS6KA4 KD1 KD2 (human); compound 0.02 µM): -1.1%
- inhibition (RPS6KA4 KD1 KD2 (human); compound 0.2 µM): 2.6%
- inhibition (NUAK1 (human); compound 0.02 µM): -3.8%
- inhibition (NUAK1 (human); compound 0.2 µM): 3.8%
- inhibition (MARK1 (human); compound 0.02 µM): -0.8%
- inhibition (MARK1 (human); compound 0.2 µM): 0.9%
- inhibition (CSNK1G1 (human); compound 0.02 µM): -3.7%
- inhibition (CSNK1G1 (human); compound 0.2 µM): -3%
- inhibition (TBK1 (human); compound 0.02 µM): -1.4%
- inhibition (TBK1 (human); compound 0.2 µM): -1.1%
- inhibition (ZAP70 (human); compound 0.02 µM): -17.2%
- inhibition (ZAP70 (human); compound 0.2 µM): 19.1%
- inhibition (MKNK2 (human); compound 0.02 µM): 4.4%
- inhibition (MKNK2 (human); compound 0.2 µM): 48.3%
- inhibition (SGK1 (human); compound 0.02 µM): -0.6%
- inhibition (SGK1 (human); compound 0.2 µM): 8.5%
- inhibition (PRKCZ (human); compound 0.02 µM): 0%
- inhibition (PRKCZ (human); compound 0.2 µM): 11.3%
- inhibition (WNK2 (human); compound 0.02 µM): -8.6%
- inhibition (WNK2 (human); compound 0.2 µM): 3.6%
- inhibition (PRKCG (human); compound 0.02 µM): -2.1%
- inhibition (PRKCG (human); compound 0.2 µM): 16.8%
- inhibition (RET (human); compound 0.02 µM): 79.4%
- inhibition (RET (human); compound 0.2 µM): 101%
- inhibition (MARK4 (human); compound 0.02 µM): 1.4%
- inhibition (MARK4 (human); compound 0.2 µM): 1.6%
- inhibition (CSNK1G2 (human); compound 0.02 µM): -18.7%
- inhibition (CSNK1G2 (human); compound 0.2 µM): -0.7%
- inhibition (IRAK4 (human); compound 0.02 µM): -5.9%
- inhibition (IRAK4 (human); compound 0.2 µM): -4.6%
- inhibition (PDPK1 (human); compound 0.02 µM): -1%
- inhibition (PDPK1 (human); compound 0.2 µM): 0.9%
- inhibition (MAPK1 (human); compound 0.02 µM): -3.9%
- inhibition (MAPK1 (human); compound 0.2 µM): -4.1%
- inhibition (ERBB2 (human); compound 0.02 µM): 0.5%
- inhibition (ERBB2 (human); compound 0.2 µM): -1.7%
- inhibition (HIPK1 (human); compound 0.02 µM): -1.4%
- inhibition (HIPK1 (human); compound 0.2 µM): 3.9%
- inhibition (ALK (human); compound 0.02 µM): -3.3%
- inhibition (ALK (human); compound 0.2 µM): 5.8%
- inhibition (CHEK2 (human); compound 0.02 µM): -0.8%
- inhibition (CHEK2 (human); compound 0.2 µM): 2.2%
- inhibition (DYRK1A (human); compound 0.02 µM): -7.5%
- inhibition (DYRK1A (human); compound 0.2 µM): 3.6%
- inhibition (MYLK2 (human); compound 0.02 µM): -3.3%
- inhibition (MYLK2 (human); compound 0.2 µM): -2.4%
- inhibition (EPHA7 (human); compound 0.02 µM): 2%
- inhibition (EPHA7 (human); compound 0.2 µM): 26.5%
- inhibition (JAK2 JH1 JH2 (human); compound 0.02 µM): -3.6%
- inhibition (JAK2 JH1 JH2 (human); compound 0.2 µM): 8.1%
- inhibition (EPHB2 (human); compound 0.02 µM): -2.9%
- inhibition (EPHB2 (human); compound 0.2 µM): 14.4%
- inhibition (EPHB3 (human); compound 0.02 µM): -2.4%
- inhibition (EPHB3 (human); compound 0.2 µM): 0.9%
- inhibition (CDK3 (human); compound 0.02 µM): -4.1%
- inhibition (CDK3 (human); compound 0.2 µM): -2.4%
- inhibition (PRKCH (human); compound 0.02 µM): 2.1%
- inhibition (MAPK14 (human); compound 0.2 µM): 63.8%
- inhibition (PRKACA (human); compound 0.02 µM): -4.7%
- inhibition (PRKACA (human); compound 0.2 µM): 0.7%

SMILES: CNC(=O)c1ccccc1Sc1ccc2c(/C=C/c3ccccn3)n[nH]c2c1
- inhibition (ROCK1 (human); compound 0.001 µM): 5.8%
- inhibition (ROCK1 (human); compound 0.02 µM): 0.7%
- inhibition (CAMK1D (human); compound 0.001 µM): -0.4%
- inhibition (CAMK1D (human); compound 0.02 µM): -0.8%
- inhibition (DYRK1B (human); compound 0.001 µM): 3.6%
- inhibition (DYRK1B (human); compound 0.02 µM): -0.4%
- inhibition (RPS6KA4 KD1 KD2 (human); compound 0.001 µM): -7.2%
- inhibition (RPS6KA4 KD1 KD2 (human); compound 0.02 µM): -1.1%
- inhibition (NUAK1 (human); compound 0.001 µM): 10.2%
- inhibition (NUAK1 (human); compound 0.02 µM): -1.9%
- inhibition (MARK1 (human); compound 0.001 µM): -3.2%
- inhibition (CSNK1G1 (human); compound 0.001 µM): -4.5%
- inhibition (CSNK1G1 (human); compound 0.02 µM): -3.6%
- inhibition (TBK1 (human); compound 0.001 µM): -3.3%
- inhibition (TBK1 (human); compound 0.02 µM): -2%
- inhibition (ZAP70 (human); compound 0.001 µM): -0.5%
- inhibition (ZAP70 (human); compound 0.02 µM): 2.7%
- inhibition (MKNK2 (human); compound 0.001 µM): 0.4%
- inhibition (MKNK2 (human); compound 0.02 µM): 1.4%
- inhibition (SGK1 (human); compound 0.001 µM): 11.3%
- inhibition (SGK1 (human); compound 0.02 µM): -1.8%
- inhibition (PRKCZ (human); compound 0.001 µM): 12%
- inhibition (PRKCZ (human); compound 0.02 µM): -4.6%
- inhibition (WNK2 (human); compound 0.001 µM): 1.8%
- inhibition (WNK2 (human); compound 0.02 µM): -0.3%
- inhibition (PRKCG (human); compound 0.001 µM): 1.2%
- inhibition (PRKCG (human); compound 0.02 µM): 17.3%
- inhibition (MARK4 (human); compound 0.001 µM): -14.2%
- inhibition (MARK4 (human); compound 0.02 µM): -4.7%
- inhibition (CSNK1G2 (human); compound 0.001 µM): -2.9%
- inhibition (CSNK1G2 (human); compound 0.02 µM): -1.6%
- inhibition (IRAK4 (human); compound 0.001 µM): -5.7%
- inhibition (IRAK4 (human); compound 0.02 µM): -6.7%
- inhibition (PDPK1 (human); compound 0.001 µM): -3.6%
- inhibition (PDPK1 (human); compound 0.02 µM): -6.4%
- inhibition (MAPK1 (human); compound 0.001 µM): -5.9%
- inhibition (MAPK1 (human); compound 0.02 µM): -7.2%
- inhibition (ERBB2 (human); compound 0.001 µM): -1.2%
- inhibition (ERBB2 (human); compound 0.02 µM): -1.4%
- inhibition (HIPK1 (human); compound 0.001 µM): -4.9%
- inhibition (HIPK1 (human); compound 0.02 µM): -0.2%
- inhibition (ALK (human); compound 0.001 µM): 2.5%
- inhibition (ALK (human); compound 0.02 µM): 1.4%
- inhibition (DYRK1A (human); compound 0.001 µM): 8%
- inhibition (DYRK1A (human); compound 0.02 µM): -5.5%
- inhibition (MYLK2 (human); compound 0.001 µM): -4.8%
- inhibition (MYLK2 (human); compound 0.02 µM): -2.6%
- inhibition (EPHA7 (human); compound 0.001 µM): -3.2%
- inhibition (EPHA7 (human); compound 0.02 µM): -0.8%
- inhibition (JAK2 JH1 JH2 (human); compound 0.001 µM): 2.5%
- inhibition (JAK2 JH1 JH2 (human); compound 0.02 µM): 4.7%
- inhibition (EPHB2 (human); compound 0.001 µM): -6.4%
- inhibition (EPHB2 (human); compound 0.02 µM): -5.2%
- inhibition (EPHB3 (human); compound 0.001 µM): -8%
- inhibition (EPHB3 (human); compound 0.02 µM): -4.7%
- inhibition (CDK3 (human); compound 0.001 µM): -4.2%
- inhibition (CDK3 (human); compound 0.02 µM): -4.8%
- inhibition (PRKCH (human); compound 0.001 µM): 4.5%
- inhibition (PRKCH (human); compound 0.02 µM): 6.2%
- inhibition (MAPK14 (human); compound 0.001 µM): -8%
- inhibition (MAPK14 (human); compound 0.02 µM): -6.9%
- inhibition (PRKACA (human); compound 0.001 µM): -7.9%
- inhibition (PRKACA (human); compound 0.02 µM): -10.1%
